From US7879563B2, “Method of screening for a carnitine transporter agonist or antagonist and its uses” (Sanofi-Aventis Deutschland GmbH, priority 2004, dated 2011)

Experiments:
Type in all cases: cell-based
[1] = target: T1, carnitine transporter comprising the amino acid sequence SEQ ID NO: 1 (Homo sapiens, UniProt Q695T7); test: Tracer flux transport measurement in Xenopus laevis oocytes injected with cRNA comprising SEQ ID NO: 4; details: for kinetics of transport compared with the substrate L-carnitine (FIG. 2): SEQ ID NO: 1, other substrates
T1 construct: expressed in transfected cells; host or cells: Xenopus laevis oocytes injected with cRNA
T1 sequence (Q695T7 1-634): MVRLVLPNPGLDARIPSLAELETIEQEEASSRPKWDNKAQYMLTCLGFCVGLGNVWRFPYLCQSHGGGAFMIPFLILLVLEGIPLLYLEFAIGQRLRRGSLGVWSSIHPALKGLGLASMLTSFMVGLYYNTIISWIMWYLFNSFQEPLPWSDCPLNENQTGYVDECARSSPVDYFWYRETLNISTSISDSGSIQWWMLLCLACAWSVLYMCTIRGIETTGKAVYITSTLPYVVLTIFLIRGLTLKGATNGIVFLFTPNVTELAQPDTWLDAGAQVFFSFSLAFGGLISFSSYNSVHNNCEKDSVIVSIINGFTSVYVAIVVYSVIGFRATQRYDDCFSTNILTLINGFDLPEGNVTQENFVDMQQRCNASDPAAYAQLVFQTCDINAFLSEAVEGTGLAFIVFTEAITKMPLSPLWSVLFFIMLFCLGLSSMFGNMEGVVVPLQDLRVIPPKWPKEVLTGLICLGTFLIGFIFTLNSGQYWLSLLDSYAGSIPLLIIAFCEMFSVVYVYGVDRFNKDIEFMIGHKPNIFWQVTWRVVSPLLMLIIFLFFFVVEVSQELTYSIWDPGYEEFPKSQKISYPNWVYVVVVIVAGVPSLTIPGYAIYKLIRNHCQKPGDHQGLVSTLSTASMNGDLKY
Method: The transport measurements of radioactively labeled compounds were executed using Xenopus laevis oocytes in the so-called “tracer flux method”, wherein the transport rate of substrates across the oocyte membrane into the cytosol is determined.
A Xenopus laevis oocyte was injected with a cRNA molecule comprising SEQ ID NO: 4.
Injected oocytes were kept in the culture medium ORi comprising gentamycin (50 mg/L) at 18° C. until the measurement of substrate uptake. Injured, acutely altered or later heavily damaged cells were discarded.
After 72 hours the oocyte was used for screening for a carnitine transporter agonist or antagonist.
Polysterene wells treated with oocyte homogenate were filled with 200 μl substrate solution. The oocytes were first washed two times with ORi solution, before use in the determination. 8 to 10 oocytes were used in a reaction mixture, in order to enable statistical evaluations. After the addition of the oocytes into the substrate solution the reaction mixture was softly mixed and incubated. The incubation was carried through at 22° C. for 1 hour. In order to stop the reaction, 1 ml of ice cold ORi was added.
The oocytes were washed four times in 15 ml ice cold ORi. Subsequently the oocytes were individually transferred into a 6 ml counter vial. The oocyte plasma membrane was disrupted by adding 100 μl […] solution. The vials were slightly agitated to disrupt the plasma membrane. The plasma membrane was completely disrupted by agitation for 30 to 45 minutes. The lysates were mixed with 2 ml of a scintillation cocktail. The radioactivity of the lysates was determined in a liquid scintillation counter comprising a correction for the luminescence and an external standard. Each vial was counted for 5 minutes.
In order to determine the substrate concentration after the dropping in of the oocytes, 2×10 μl solution were removed from the reaction mixture, 100 μl 5% SDS solution was added and evaluations with the counter were carried out. The obtained values were considered in the calculation of the transport rates.
For the determination of concentration-dependent substrate uptake serial dilutions of the investigated substrate were prepared and the radioactivity was distributed, such that in each reaction mixture between 10000 and 20000 cpm were counted in the supernatant. For the KM determination the substrate uptake was measured for 1 hour. In addition, the measurement was carried through using H2O-injected oocytes, in order to determine the background, i.e. the unspecific substrate uptake, for example mediated by diffusion or by endogenous transport proteins. The transport rates were calculated and graphically plotted against the substrate concentration and adapted mathematically according to the Michaelis-Menten equation.

[2] = target: T2, carnitine transporter comprising the amino acid sequence SEQ ID NO: 2 (Mus musculus, UniProt Q9D687); test: Transport activity of the mouse kidney and intestinal carnitine transporter
T2 sequence (Q9D687 1-634): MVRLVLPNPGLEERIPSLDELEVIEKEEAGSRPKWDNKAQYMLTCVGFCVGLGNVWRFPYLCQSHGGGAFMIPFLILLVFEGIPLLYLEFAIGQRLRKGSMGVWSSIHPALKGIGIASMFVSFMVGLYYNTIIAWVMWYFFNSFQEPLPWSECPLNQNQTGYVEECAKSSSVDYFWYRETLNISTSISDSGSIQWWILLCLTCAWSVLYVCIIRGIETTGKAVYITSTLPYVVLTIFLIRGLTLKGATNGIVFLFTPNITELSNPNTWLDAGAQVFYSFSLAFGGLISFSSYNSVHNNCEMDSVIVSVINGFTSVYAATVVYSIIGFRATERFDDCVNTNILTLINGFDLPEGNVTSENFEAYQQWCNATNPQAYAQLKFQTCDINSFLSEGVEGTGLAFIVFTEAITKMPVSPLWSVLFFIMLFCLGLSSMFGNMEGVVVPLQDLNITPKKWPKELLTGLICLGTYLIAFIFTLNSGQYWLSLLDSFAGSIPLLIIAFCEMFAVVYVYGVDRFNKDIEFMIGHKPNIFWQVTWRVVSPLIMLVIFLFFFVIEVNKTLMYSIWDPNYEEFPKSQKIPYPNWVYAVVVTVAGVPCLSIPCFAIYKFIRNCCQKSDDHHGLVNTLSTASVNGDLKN

[3] = target: T3, carnitine transporter comprising the amino acid sequence SEQ ID NO: 3 (Rattus norvegicus, UniProt Q2A865, F276Y/R32K/S186P); test: Transport activity of the rat kidney and intestinal carnitine transporter
T3 sequence (Q2A865 1-634 R32K/S186P/F276Y): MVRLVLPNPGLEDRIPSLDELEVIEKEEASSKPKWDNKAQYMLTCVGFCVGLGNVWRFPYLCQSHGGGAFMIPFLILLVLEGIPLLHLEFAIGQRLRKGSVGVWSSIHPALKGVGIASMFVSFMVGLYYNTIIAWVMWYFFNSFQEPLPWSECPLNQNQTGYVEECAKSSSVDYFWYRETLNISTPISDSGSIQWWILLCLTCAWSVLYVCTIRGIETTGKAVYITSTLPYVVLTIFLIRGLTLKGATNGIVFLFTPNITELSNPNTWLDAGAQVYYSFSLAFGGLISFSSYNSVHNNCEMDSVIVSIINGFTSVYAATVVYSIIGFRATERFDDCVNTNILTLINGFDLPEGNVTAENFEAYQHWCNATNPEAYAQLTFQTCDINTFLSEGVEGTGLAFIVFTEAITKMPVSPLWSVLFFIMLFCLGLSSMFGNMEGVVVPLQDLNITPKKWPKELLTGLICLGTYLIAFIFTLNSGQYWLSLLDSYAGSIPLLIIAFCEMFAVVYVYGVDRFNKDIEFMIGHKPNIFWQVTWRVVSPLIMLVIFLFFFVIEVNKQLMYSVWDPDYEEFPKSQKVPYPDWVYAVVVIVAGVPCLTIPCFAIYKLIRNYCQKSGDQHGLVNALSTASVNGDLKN

Question: For `C[n+]1ccc(-c2ccccc2)cc1` [methylphenylpyridinium], which “kinetics of transport compared with the substrate L-carnitine (FIG. 2)” value [1] is on record?
Answer: comparable kinetics

Question: For `NCCc1c[nH]c2ccc(O)cc12` [serotonin], which “kinetics of transport compared with the substrate L-carnitine (FIG. 2)” value [1] is on record?
Answer: comparable kinetics

Question: For `C[N+](C)(C)C[C@H](O)CC(=O)[O-]` [L-carnitine], which “kinetics of transport compared with FIG. 2 (SEQ ID NO: 1)” value [2] is on record?
Answer: comparable kinetics

Question: What about the “kinetics of transport compared with FIG. 2 (SEQ ID NO: 1)” value [3] of the same compound?
Answer: comparable kinetics

Question: For `NC[C@H](O)c1ccc(O)c(O)c1` [noradrenaline], which “kinetics of transport compared with the substrate L-carnitine (FIG. 2)” value [1] is on record?
Answer: comparable kinetics

Question: Which “transport of the substrate” value [2] does the source give for `CN(CC(=O)O)C(=N)N` [creatine] here?
Answer: transport

Question: And the “transport of the substrate” value [3]?
Answer: transport

Question: What about the “transport of the substrate” value ([1]; SEQ ID NO: 1) of the same compound?
Answer: transport

Question: And the “kinetics of transport compared with the substrate L-carnitine (FIG. 2)” value [1]?
Answer: comparable kinetics
